Results published in ChEMBL document CHEMBL2146405, “Isomalyngamide A, A-1 and their analogs suppress cancer cell migration in vitro” (Eur J Med Chem, 2011).
Blank lines part the entries; values can stand above or below the compound they belong to. Calls of active or inactive are those of the source. The calls are words filed in the database; no cut-off is given here.

Assays:
[1] = Solubility of compound at 10 uM; format: physicochemical
MCF7 [2] = test: Antiproliferative activity against human MCF7 cells after 48 hrs by MTT assay; format: functional, cell-based; details: MCF7, 48 h
MDA-MB-231 [3] = test: Antiproliferative activity against human MDA-MB-231 cells after 48 hrs by MTT assay; format: functional, cell-based; details: MDA-MB-231, 48 h
MDA-MB-231 [4] = test: Antimetastatic activity in human MDA-MB-231 cells assessed as inhibition of serum-induced cellular migration at 150 nM after 24 hrs by wound healing assay; format: functional, cell-based
MDA-MB-231 [5] = test: Antimetastatic activity in human MDA-MB-231 cells assessed as inhibition of cell migration-associated wound closure at 150 nM after 24 hrs of scratching by wound-healing assay; format: functional, cell-based
[6] = Inhibition of rat liver alpha 2,3-sialyltransferase
MDA-MB-231 [7] = test: cells; details: Homo sapiens, MDA-MB-231, 16 h
Description: Antimetastatic activity in human MDA-MB-231 cells assessed as inhibition of serum-induced cellular migration after 16 hrs by Boyden chamber assay

MCF7 [8] = test: Antiproliferative activity against human MCF7 cells at 20 uM after 48 hrs by MTT assay; format: functional; details: MCF7, 48 h
MDA-MB-231 [9] = test: Antiproliferative activity against human MDA-MB-231 cells at 20 uM after 48 hrs by MTT assay; format: functional; details: MDA-MB-231, 48 h
MDA-MB-231 [10] = test: Antiproliferative activity against human MDA-MB-231 cells assessed as reduction in cell viability at 50 uM after 48 hrs by MTT assay; format: functional, cell-based
[11] = target: Integrin beta-1 (Homo sapiens) (UniProt P05556); test: Inhibition of beta1-integrin in human MDA-MB-231 cells after 2 hrs by Western blot analysis; format: cell-based
[12] = target: Integrin beta-1 (Homo sapiens) (UniProt P05556); test: Inhibition of beta1-integrin in human MDA-MB-231 cells assessed as FAK protein level after 2 hrs by Western blot analysis; format: cell-based
[13] = target: Integrin beta-1 (Homo sapiens) (UniProt P05556); test: Inhibition of beta1-integrin in human MDA-MB-231 cells assessed as Akt protein level after 2 hrs by Western blot analysis; format: cell-based
[14] = target: Integrin beta-1 (Homo sapiens) (UniProt P05556); test: Inhibition of beta1-integrin in human MDA-MB-231 cells assessed as FAK phosphorylation at Tyr576/Tyr577 after 2 hrs by Western blot analysis; format: cell-based
[15] = target: Integrin beta-1 (Homo sapiens) (UniProt P05556); test: Inhibition of beta1-integrin in human MDA-MB-231 cells assessed as Akt phosphorylation at Ser473 after 2 hrs by Western blot analysis; format: cell-based
Rattus norvegicus = species on record: Rattus norvegicus; test: Inhibition of rat liver alpha 2,3-sialyltransferase at 100 uM

Chain of Integrin beta-1 (Homo sapiens) (P05556 whole entry): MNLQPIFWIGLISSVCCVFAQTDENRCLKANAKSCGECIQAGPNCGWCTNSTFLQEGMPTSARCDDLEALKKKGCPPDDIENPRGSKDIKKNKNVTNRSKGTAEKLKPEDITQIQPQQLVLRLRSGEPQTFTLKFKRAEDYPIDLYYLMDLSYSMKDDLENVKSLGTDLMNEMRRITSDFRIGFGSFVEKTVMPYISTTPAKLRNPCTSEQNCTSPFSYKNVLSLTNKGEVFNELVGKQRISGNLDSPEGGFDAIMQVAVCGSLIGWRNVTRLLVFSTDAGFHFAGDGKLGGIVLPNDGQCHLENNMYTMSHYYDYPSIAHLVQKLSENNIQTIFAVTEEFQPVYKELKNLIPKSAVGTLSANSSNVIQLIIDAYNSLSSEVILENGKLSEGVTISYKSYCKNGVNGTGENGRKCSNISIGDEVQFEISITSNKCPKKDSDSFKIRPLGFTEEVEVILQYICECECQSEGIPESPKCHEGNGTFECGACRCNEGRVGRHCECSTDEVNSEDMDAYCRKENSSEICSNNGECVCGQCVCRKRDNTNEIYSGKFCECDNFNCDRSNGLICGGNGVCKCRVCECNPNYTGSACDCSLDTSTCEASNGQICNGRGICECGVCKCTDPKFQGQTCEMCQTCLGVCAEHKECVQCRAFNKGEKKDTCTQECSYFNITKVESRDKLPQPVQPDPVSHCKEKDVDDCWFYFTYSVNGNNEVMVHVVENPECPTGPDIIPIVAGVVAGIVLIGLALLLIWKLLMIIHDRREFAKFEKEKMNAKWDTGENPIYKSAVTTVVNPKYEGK

- solubility [1]: Insoluble
SMILES: CCCCCCCCCCCCCC(=O)N1CC(OC)=CC1=O

- IC50 (MCF7 [2]): 4.6 µM
- IC50 (MDA-MB-231 [3]): 2.8 µM
- IC50 [6]: 77.2 µM
- IC50 (MDA-MB-231 [7]): 0.06 µM
SMILES: CCCCCCC[C@@H](C/C=C/CCC(=O)N(C)C/C(=C\Cl)C/C(=C\C(=O)N1CC(OC)=CC1=O)OC)OC [ISOMALYNGAMIDE A]
- Activity (MDA-MB-231 [4]): Active
- Activity (MDA-MB-231 [5]): Active

Second part, the compound before the results:

SMILES: CCCCCCCCCCCCCC(=O)NCCNC(=O)C(C)(C)C(=O)NCC(=O)O
- inhibition at 20 µM (MCF7 [8]): 7%
- inhibition at 20 µM (MDA-MB-231 [9]): 0%
- Activity (MDA-MB-231 [10]): inactive
- IC50 [6]: 37 µM
- IC50 (MDA-MB-231 [7]): 22.7 µM

SMILES: CCCCCCCCCCCCCC(=O)NCCNC(=O)C(C)(C)C(=O)N1CC(=O)CC1=O
- inhibition [11]: Dose-dependent effect
- inhibition [12]: Dose-dependent effect
- inhibition [13]: Dose-dependent effect
- inhibition [14]: Dose-dependent effect
- inhibition [15]: Active

SMILES: COC1=CC(=O)NC1
- inhibition at 20 µM (MCF7 [8]): 2%
- inhibition at 20 µM (MDA-MB-231 [9]): 3%
- inhibition (Rattus norvegicus): inactive
